Where “and” joins values, the source holds several entries; their conditions need not be identical. Equal entries are not always repeated. Calls of active or inactive are those of the source.
Tests used:
Coagulation factor XII = target: T1, Coagulation factor XII (Homo sapiens, UniProt P00748); format: functional;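 also: activated factor XIIa alpha cleaving a fluorogenic AMC peptide substrate; inhibitor potency from loss of enzyme activity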
T1 sequence (P00748 whole entry): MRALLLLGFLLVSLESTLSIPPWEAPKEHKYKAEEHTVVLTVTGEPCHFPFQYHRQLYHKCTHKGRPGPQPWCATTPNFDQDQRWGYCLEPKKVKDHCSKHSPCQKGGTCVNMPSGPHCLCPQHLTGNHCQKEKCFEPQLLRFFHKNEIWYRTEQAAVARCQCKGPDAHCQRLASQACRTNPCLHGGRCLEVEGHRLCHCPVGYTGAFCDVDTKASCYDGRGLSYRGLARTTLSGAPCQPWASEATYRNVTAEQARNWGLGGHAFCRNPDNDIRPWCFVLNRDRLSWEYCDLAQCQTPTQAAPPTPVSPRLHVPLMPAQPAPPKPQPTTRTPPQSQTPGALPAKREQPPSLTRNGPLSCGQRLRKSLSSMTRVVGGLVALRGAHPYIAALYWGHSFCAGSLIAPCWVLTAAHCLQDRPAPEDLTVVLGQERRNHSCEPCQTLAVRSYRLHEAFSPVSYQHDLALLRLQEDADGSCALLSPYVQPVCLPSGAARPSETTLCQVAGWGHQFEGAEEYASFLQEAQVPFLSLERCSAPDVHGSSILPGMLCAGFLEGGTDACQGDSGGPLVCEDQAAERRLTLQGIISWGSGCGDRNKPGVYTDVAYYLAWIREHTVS

[1] = target: DNA dC->dU-editing enzyme APOBEC-3A (Homo sapiens, UniProt P31941); assay: APOBEC3A DNA deaminase inhibitors, dose response, biochemical (AID 504722); format: functional
[2] = target: DNA dC->dU-editing enzyme APOBEC-3G (Homo sapiens, UniProt Q9HC16); assay: Dose Response confirmation of small molecule APOBEC3G DNA Deaminase Inhibitors via a fluorescence-based single-stranded DNA deaminase assay. [Related pubchem assays (depositor defined):AID493012, AID493028]; format: functional
[3] = target: G-protein coupled receptor 55 (Homo sapiens, UniProt Q9Y2T6); assay: GPR55 antagonists blocking LPI-driven arrestin recruitment, primary screen, imaging, U2OS, beta-arrestin-GFP, LPI agonist (AID 2013); format: functional;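 also: antagonist potency measured as reduced agonist-driven arrestin aggregation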
[4] = system: Streptococcus sp. 'group A'; assay: growth inhibition of control SK(-) GAS strain, dose response, counter-screen for streptokinase expression inhibitor project, luminescence, kanamycin, BacTiterGlo, confirmation (AID 1900); format: functional, organism-based
Streptokinase A = target: T2, Streptokinase A (Streptococcus pyogenes serotype M1, UniProt P10520); assay: S. pyogenes streptokinase expression inhibitors, potency, dose response, plasminogen activation absorbance, OD405 (AID 1914); format: functional, Streptococcus pyogenes M1 GAS;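 also: secreted streptokinase activity via plasminogen activation per viability signal from cell pellet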
T2 sequence (P10520 whole entry): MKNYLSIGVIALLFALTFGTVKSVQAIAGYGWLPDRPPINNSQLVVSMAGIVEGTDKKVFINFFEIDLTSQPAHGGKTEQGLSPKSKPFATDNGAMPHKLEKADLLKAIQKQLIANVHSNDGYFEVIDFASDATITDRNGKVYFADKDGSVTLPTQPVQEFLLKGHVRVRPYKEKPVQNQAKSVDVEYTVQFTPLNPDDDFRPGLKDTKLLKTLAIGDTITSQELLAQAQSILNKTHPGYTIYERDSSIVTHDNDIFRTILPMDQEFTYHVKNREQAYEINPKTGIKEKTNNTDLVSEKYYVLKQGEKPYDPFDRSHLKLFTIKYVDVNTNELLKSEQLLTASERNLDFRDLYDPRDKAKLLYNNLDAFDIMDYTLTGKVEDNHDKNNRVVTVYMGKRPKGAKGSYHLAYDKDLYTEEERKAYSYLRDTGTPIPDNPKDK

Streptococcus = assay: Group A Streptococcus viability loss, dose response, counter-screen for streptokinase expression inhibitor project, luminescence, BacTiterGlo (AID 1915); format: functional, organism-based;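 also: potency for reduction of bacterial viability or growth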
[5] = THP-1 cell cytotoxicity, dose response, cytotoxicity control for non-replicating M. tuberculosis project (AID 489025); format: functional
[6] = HepG2 cell cytotoxicity, dose response, cytotoxicity control for non-replicating M. tuberculosis project (AID 489018); format: functional; settings: Mycobacterium tuberculosis
[7] = Vero E6 cell cytotoxicity, dose response, cytotoxicity control for non-replicating M. tuberculosis project, secondary assay (AID 492998); format: functional, VeroE6; settings: Vero C1008
cells = format: functional
[8] = target: T3, Short transient receptor potential channel 4 (Mus musculus, UniProt Q9QUQ5); assay: mouse TRPC4 channel inhibitors, dose response, cell-based, HEK293 TRPC4/mu-opioid, Fluo-4 calcium (AID 434942); format: functional;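 also: potency of inhibitors blocking the TRPC4 calcium response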
T3 sequence (Q9QUQ5 whole entry): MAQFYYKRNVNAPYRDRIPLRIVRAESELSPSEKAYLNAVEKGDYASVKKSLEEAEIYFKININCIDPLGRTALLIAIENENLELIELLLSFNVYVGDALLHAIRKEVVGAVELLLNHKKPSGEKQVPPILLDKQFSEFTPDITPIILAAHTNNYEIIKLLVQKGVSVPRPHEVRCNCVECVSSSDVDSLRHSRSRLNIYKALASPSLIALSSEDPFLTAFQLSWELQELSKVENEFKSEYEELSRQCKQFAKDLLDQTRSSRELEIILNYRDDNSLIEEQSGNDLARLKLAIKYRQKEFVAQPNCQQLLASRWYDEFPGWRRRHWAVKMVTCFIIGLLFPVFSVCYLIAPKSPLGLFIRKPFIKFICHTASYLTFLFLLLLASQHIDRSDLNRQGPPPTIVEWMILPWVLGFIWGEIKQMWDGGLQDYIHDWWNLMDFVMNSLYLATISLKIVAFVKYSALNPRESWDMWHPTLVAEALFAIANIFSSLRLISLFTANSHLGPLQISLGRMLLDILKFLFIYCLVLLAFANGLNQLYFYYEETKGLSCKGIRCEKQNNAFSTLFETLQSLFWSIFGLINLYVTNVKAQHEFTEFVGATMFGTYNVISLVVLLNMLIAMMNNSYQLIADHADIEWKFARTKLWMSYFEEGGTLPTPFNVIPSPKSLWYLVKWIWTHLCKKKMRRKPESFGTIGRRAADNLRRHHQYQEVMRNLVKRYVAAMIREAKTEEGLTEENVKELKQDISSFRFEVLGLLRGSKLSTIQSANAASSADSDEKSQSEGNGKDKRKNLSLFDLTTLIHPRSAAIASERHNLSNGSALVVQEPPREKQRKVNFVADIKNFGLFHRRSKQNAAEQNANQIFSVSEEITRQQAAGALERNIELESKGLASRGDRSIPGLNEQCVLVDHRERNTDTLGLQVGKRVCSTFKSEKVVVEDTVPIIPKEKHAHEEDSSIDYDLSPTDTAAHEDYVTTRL

[9] = target: T4, RNA-binding protein pos-1 (Caenorhabditis elegans, UniProt G5EF15); assay: inhibitors of POS-1/mex-3 RNA binding, dose response, biochemical, fluorescence polarization (AID 1964);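 also: purified POS-1 fused to maltose binding protein made in E. coli; potency of compounds blocking POS-1 binding to fluorescent RNA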
T4 sequence (G5EF15 whole entry): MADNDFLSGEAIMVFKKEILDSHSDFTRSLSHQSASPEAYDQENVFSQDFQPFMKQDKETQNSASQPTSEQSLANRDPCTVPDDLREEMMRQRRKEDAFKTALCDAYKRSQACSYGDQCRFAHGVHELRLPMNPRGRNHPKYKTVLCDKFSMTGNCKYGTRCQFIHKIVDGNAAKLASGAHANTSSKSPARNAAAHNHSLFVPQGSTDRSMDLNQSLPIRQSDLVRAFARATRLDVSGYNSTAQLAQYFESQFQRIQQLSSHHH

[10] = target: T5, Zinc finger protein mex-5 (Caenorhabditis elegans, UniProt Q9XUB2); assay: MEX-5/TCR-2 RNA interaction inhibitors, dose response, biochemical, C. elegans, fluorescence polarization (AID 1960)
T5 sequence (Q9XUB2 whole entry): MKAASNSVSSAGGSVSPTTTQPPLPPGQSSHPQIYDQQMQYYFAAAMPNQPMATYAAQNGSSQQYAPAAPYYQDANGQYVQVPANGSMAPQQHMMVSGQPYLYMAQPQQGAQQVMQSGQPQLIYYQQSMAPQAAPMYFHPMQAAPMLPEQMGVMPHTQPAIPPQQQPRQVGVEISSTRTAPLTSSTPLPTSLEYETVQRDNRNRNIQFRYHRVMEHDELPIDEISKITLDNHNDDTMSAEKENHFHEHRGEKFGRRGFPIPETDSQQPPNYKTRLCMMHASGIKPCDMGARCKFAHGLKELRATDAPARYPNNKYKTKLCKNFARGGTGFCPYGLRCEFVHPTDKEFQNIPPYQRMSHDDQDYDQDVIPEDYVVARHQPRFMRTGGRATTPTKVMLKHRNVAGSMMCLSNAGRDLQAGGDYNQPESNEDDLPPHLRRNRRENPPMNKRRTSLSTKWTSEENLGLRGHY

[11] = target: T6, Mannose-6-phosphate isomerase (Homo sapiens, UniProt P34949); assay: inhibitors of human PMI, primary screen, biochemical, fluorescence intensity, coupled assay (AID 1209)
T6 sequence (P34949 whole entry): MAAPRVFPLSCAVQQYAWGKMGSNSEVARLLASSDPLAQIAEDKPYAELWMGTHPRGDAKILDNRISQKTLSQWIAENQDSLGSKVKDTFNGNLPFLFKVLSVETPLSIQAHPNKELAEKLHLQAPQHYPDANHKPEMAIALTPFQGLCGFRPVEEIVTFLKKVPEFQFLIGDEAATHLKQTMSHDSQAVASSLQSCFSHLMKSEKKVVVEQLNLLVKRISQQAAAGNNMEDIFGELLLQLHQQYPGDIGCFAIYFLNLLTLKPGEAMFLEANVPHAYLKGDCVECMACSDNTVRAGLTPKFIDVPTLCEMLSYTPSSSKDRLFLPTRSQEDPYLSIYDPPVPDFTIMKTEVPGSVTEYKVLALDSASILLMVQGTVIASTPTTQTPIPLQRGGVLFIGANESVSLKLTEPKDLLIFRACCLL

[12] = target: Eukaryotic translation initiation factor 4E (Mus musculus, UniProt P63073); assay: eIF4E–eIF4G protein interaction inhibitors, dose response, biochemical, TR-FRET (AID 855); format: functional;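 also: potency for disrupting eIF4E binding to eIF4GI seen as loss of FRET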
Nonstructural protein 1 = Nonstructural protein 1 (Influenza A virus, UniProt Q194T2); format: functional, Influenza A virus (A/California/07/2009(H1N1))
[13] = target: Ras and Rab interactor 1/Tyrosine-protein kinase ABL1 (Homo sapiens, UniProt P00519+Q13671); format: functional;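 also: biochemical TR-FRET dose-response test measuring inhibition of binding between Rin1 and Abl proteins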
[14] = target: T7, Long-chain-fatty-acid--AMP ligase FadD28 (Mycobacterium tuberculosis, UniProt P9WQ59); assay: Fluorescence polarization aasay to screen for inhibitors that compete for the binding of FadD28 to a bisubstrate Measured in Biochemical System Using Plate Reader - 2147-01_Inhibitor_Dose_CherryPick_Activity.; format: functional, Mycobacterium tuberculosis H37Rv
T7 sequence (P9WQ59 whole entry): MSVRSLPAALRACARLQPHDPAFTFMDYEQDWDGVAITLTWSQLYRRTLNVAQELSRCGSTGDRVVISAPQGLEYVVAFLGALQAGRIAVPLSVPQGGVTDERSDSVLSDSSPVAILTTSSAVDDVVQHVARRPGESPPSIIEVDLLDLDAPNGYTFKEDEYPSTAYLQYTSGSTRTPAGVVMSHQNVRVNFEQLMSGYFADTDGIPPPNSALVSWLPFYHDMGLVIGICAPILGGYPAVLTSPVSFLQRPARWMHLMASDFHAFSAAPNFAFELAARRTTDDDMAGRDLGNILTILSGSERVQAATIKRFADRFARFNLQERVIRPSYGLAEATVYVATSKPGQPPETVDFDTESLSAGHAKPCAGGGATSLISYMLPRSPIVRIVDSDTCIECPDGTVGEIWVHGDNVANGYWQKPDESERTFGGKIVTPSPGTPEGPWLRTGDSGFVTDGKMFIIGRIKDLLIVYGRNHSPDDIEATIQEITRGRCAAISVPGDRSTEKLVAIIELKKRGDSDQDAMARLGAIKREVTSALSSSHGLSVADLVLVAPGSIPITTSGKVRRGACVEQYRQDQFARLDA

Protein Tat = target: T8, Protein Tat (Human immunodeficiency virus type 1 group M subtype B (isolate HXB2)(HIV-1), UniProt P04608); format: functional;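 also: tat binding to TAR RNA read out by fluorescence polarization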
T8 sequence (P04608 whole entry): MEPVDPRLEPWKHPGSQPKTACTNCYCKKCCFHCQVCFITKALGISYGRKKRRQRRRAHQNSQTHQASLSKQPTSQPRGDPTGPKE

Chain of DNA dC->dU-editing enzyme APOBEC-3A (P31941 whole entry): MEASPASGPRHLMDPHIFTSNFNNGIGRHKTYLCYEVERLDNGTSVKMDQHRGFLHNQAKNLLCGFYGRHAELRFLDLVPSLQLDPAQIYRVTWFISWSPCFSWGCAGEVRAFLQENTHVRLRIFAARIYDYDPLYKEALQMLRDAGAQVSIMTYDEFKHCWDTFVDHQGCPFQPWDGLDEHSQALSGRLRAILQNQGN
Chain of DNA dC->dU-editing enzyme APOBEC-3G (Q9HC16 whole entry): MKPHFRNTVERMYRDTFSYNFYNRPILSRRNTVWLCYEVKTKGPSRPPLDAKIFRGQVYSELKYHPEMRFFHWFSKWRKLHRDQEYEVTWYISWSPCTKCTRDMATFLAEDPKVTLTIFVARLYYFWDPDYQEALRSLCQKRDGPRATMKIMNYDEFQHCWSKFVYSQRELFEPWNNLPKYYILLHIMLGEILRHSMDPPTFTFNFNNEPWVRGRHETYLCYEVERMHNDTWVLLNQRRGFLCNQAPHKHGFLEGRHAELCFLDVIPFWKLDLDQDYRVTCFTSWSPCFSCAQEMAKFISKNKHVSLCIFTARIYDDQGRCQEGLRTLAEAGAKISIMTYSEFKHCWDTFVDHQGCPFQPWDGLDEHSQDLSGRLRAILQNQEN
Chain of G-protein coupled receptor 55 (Q9Y2T6 whole entry): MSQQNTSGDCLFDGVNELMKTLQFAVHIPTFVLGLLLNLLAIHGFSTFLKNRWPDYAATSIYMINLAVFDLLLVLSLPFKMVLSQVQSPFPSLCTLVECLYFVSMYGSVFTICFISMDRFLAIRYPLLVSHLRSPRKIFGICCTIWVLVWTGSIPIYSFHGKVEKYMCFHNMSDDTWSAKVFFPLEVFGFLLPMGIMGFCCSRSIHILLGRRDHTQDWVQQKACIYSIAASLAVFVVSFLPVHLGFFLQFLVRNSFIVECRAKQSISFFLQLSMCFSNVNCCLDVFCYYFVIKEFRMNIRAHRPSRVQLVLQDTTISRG
Chain of Nonstructural protein 1 (Q194T2 whole entry): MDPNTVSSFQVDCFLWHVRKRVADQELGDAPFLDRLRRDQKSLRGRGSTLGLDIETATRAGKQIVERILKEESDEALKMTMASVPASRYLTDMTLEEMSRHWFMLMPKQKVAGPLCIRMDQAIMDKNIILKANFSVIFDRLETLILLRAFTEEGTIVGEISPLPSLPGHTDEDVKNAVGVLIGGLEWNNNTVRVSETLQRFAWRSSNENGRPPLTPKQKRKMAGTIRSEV
Chain of Eukaryotic translation initiation factor 4E (P63073 whole entry): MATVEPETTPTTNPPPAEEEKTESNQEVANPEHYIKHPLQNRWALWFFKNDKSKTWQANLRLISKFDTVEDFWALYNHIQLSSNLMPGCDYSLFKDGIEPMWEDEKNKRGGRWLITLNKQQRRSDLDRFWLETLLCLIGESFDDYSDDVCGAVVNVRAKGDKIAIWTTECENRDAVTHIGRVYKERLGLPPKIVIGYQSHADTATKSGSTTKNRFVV
Chain of Ras and Rab interactor 1/Tyrosine-protein kinase ABL1 (P00519 whole entry): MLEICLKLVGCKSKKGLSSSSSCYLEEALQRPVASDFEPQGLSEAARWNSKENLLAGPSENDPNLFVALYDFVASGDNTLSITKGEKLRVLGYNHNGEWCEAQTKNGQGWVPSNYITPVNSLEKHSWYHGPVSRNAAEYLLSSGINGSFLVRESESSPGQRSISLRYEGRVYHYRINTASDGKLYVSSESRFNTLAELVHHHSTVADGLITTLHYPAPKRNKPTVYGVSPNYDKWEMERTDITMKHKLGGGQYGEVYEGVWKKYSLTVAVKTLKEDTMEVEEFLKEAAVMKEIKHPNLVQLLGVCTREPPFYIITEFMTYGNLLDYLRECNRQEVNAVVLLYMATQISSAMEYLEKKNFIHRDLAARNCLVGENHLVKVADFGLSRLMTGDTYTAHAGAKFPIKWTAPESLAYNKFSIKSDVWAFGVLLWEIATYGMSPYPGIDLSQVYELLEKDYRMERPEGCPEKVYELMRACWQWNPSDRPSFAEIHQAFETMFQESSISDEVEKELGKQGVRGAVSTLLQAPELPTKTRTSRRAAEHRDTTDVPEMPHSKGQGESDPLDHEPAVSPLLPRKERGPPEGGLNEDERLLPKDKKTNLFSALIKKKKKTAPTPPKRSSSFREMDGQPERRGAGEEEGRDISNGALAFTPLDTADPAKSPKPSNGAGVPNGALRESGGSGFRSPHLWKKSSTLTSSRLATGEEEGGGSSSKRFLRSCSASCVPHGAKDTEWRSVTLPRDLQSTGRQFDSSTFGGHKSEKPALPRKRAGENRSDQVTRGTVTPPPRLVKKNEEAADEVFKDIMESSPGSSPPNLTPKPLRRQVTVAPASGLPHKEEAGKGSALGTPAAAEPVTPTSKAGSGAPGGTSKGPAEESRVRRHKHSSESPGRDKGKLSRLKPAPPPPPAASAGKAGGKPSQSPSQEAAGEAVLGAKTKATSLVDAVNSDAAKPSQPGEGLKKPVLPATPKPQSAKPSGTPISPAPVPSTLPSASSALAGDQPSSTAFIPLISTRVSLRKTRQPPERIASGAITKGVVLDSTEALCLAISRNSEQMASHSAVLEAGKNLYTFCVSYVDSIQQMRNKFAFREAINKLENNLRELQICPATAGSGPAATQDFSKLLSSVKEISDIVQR
Chain of Ras and Rab interactor 1/Tyrosine-protein kinase ABL1 (Q13671 whole entry): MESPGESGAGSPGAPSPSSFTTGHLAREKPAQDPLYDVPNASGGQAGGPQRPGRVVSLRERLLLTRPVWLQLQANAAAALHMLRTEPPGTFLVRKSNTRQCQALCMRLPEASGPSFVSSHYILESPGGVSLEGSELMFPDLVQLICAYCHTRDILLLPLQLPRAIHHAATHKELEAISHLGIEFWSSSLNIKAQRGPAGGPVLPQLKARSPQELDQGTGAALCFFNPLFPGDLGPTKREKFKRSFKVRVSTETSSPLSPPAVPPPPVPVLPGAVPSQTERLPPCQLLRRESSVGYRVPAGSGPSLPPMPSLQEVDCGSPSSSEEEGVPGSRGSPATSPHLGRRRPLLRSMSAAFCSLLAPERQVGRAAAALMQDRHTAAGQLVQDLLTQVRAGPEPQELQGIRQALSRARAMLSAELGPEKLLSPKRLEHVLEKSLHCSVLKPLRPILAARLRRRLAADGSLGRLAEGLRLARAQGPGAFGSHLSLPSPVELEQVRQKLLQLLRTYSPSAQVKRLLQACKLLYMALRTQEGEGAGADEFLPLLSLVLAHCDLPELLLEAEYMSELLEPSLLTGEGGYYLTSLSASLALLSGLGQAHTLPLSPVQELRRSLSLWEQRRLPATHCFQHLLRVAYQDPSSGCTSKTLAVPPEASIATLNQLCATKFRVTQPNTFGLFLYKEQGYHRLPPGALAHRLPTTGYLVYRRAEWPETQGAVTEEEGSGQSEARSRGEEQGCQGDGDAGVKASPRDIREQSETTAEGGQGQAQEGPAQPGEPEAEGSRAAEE

## CC(=O)NC(CC(=O)OCC(=O)c1c(N)n(C)c(=O)n(C)c1=O)c1ccccc1 (centres undefined)
Coagulation factor XII
  IC50: > 50 µM (inactive)

## CCn1c(S)nnc1CSCc1ccccc1
[1]
  IC50: > 100 µM (inactive)
[2]
  IC50: 8.31 µM (active)

## CC(C)CC(=O)NC(Oc1ccc(Cl)cc1)C(Cl)(Cl)Cl (centres undefined)
[3]
  IC50: 1.17 µM (active)

## Cc1cc(-c2nnc(S)n2/N=C/c2ccc(C)o2)n[nH]1
[1]
  IC50: > 100 µM (inactive)
[2]
  IC50: 5.66 µM (active)

## Cc1nc(SCc2ccccc2)c2ccsc2n1
Coagulation factor XII
  IC50: > 50 µM (inactive)

## O=C(Nc1nnc(-c2ccncc2)o1)c1ccc(Br)s1
[4]
  EC50: 3.57 µM (active)
Streptokinase A
  EC50: > 150 µM (not active)
Streptococcus
  EC50: 11.8 µM (active)
[5]
  CC50: 23.7 µM (active)
[6]
  CC50: 19.3 µM (active)
[7]
  CC50: 16.8 µM (active)
cells
  IC50: 18.3 µM (active)

## CCOC(=O)c1c(N)sc(C(O)(C(F)(F)F)C(F)(F)F)c1-c1ccccc1
[3]
  IC50: 3.66 µM (active)
[8]
  EC50: 7.5 µM (active)

## Cc1ccc(-n2c(C)cc(C3=NN=C(NC4CC4)SC3)c2C)cc1C
[5]
  CC50: 20 µM (active)
[6]
  CC50: > 20 µM (active)
[7]
  CC50: > 20 µM (active)
cells
  IC50: 39 µM (active)

## N#Cc1cnn(Cc2ccc(Cl)cc2)c1N
Coagulation factor XII
  IC50: > 50 µM (inactive)

## Cc1c2cc(O)c(=O)cc-2oc2cc(O)c(O)cc12
[9]
  EC50: 1.9 µM (inconclusive)
[10]
  EC50: 0.082 µM (active)
[11]
  IC50: 3.55 µM (active)
[12]
  IC50: 43.3 µM (inactive)
Nonstructural protein 1
  IC50: 30.5 µM (active)
[13]
  IC50: 0.835 µM (active)
[14]
  AC50: 4.65 µM (active)
Protein Tat
  IC50: 31.3 µM (inconclusive) and > 52.2 µM (active)
